{"source": "patent US20150307938A1", "about": "“METHOD TO IDENTIFY A NOVEL CLASS OF IMMUNOLOGIC ADJUVANTS” (Lancell, L.L.C., priority 2011, published 2015)", "tested_on": "skin", "assay": "Affymetrix microarray of skin, DBP-4 hr and analogs vs. untreated; gene selection by log-2 fold change, Wilcoxon, Kendall tau (Tables 8, 9)", "assay_type": "in vivo, mouse", "data": [{"molecule": "CC(C)=O", "note": "[Acetone]", "values": [{"measurement": "Log2 Expression Level", "setting": "gene #1 of Table 8", "result": 5.63}, {"measurement": "Log2 Expression Level", "setting": "gene #2 of Table 8", "result": 7.13}, {"measurement": "Log2 Expression Level", "setting": "gene #3 of Table 8", "result": 8.73}, {"measurement": "Log2 Expression Level", "setting": "gene #4 of Table 8", "result": 8.73}, {"measurement": "Log2 Expression Level", "setting": "gene #5 of Table 8", "result": 6.36}, {"measurement": "Log2 Expression Level", "setting": "gene #6 of Table 8", "result": 5.62}, {"measurement": "Log2 Expression Level", "setting": "gene #7 of Table 8", "result": 5.07}, {"measurement": "Log2 Expression Level", "setting": "gene #8 of Table 8", "result": 5.62}, {"measurement": "Log2 Expression Level", "setting": "gene #9 of Table 8", "result": 5.62}, {"measurement": "Log2 Expression Level", "setting": "gene #10 of Table 8", "result": 5.62}, {"measurement": "Log2 Expression Level", "setting": "gene #11 of Table 8", "result": 5.07}, {"measurement": "Log2 Expression Level", "setting": "gene #12 of Table 8", "result": 5.07}, {"measurement": "Log2 Expression Level", "setting": "gene #13 of Table 8", "result": 5.07}, {"measurement": "Log2 Expression Level", "setting": "gene #14 of Table 8", "result": 4.90}, {"measurement": "Log2 Expression Level", "setting": "gene #15 of Table 8", "result": 4.90}, {"measurement": "Log2 Expression Level", "setting": "gene #16 of Table 8", "result": 6.15}, {"measurement": "Log2 Expression Level", "setting": "gene #17 of Table 8", "result": 8.79}, {"measurement": "Log2 Expression Level", "setting": "gene #18 of Table 8", "result": 8.79}, {"measurement": "Log2 Expression Level", "setting": "gene #19 of Table 8", "result": 8.22}, {"measurement": "Log2 Expression Level", "setting": "gene #20 of Table 8", "result": 7.12}, {"measurement": "Log2 Expression Level", "setting": "gene #21 of Table 8", "result": 7.81}, {"measurement": "Log2 Expression Level", "setting": "gene #22 of Table 8", "result": 7.76}, {"measurement": "Log2 Expression Level", "setting": "gene #23 of Table 8", "result": 5.76}, {"measurement": "Log2 Expression Level", "setting": "gene #24 of Table 8", "result": 6.97}, {"measurement": "Log2 Expression Level", "setting": "gene #25 of Table 8", "result": 6.97}, {"measurement": "Log2 Expression Level", "setting": "gene #26 of Table 8", "result": 6.97}, {"measurement": "Log2 Expression Level", "setting": "gene #27 of Table 8", "result": 6.97}, {"measurement": "Log2 Expression Level", "setting": "gene #28 of Table 8", "result": 6.97}, {"measurement": "Log2 Expression Level", "setting": "gene #29 of Table 8", "result": 4.96}, {"measurement": "Log2 Expression Level", "setting": "gene #30 of Table 8", "result": 8.52}, {"measurement": "Log2 Expression Level", "setting": "gene #31 of Table 8", "result": 8.52}, {"measurement": "Log2 Expression Level", "setting": "gene #32 of Table 8", "result": 8.52}, {"measurement": "Log2 Expression Level", "setting": "gene #33 of Table 8", "result": 5.65}, {"measurement": "Log2 Expression Level", "setting": "gene #34 of Table 8", "result": 6.46}, {"measurement": "Log2 Expression Level", "setting": "gene #35 of Table 8", "result": 6.46}, {"measurement": "Log2 Expression Level", "setting": "gene #36 of Table 8", "result": 8.73}, {"measurement": "Log2 Expression Level", "setting": "gene #37 of Table 8", "result": 8.73}, {"measurement": "Log2 Expression Level", "setting": "gene #38 of Table 8", "result": 8.73}, {"measurement": "Log2 Expression Level", "setting": "gene #39 of Table 8", "result": 7.16}, {"measurement": "Log2 Expression Level", "setting": "gene #40 of Table 8", "result": 7.23}, {"measurement": "Log2 Expression Level", "setting": "gene #41 of Table 8", "result": 7.42}, {"measurement": "Log2 Expression Level", "setting": "gene #42 of Table 8", "result": 7.03}, {"measurement": "Log2 Expression Level", "setting": "gene #43 of Table 8", "result": 7.03}, {"measurement": "Log2 Expression Level", "setting": "gene #44 of Table 8", "result": 7.42}, {"measurement": "Log2 Expression Level", "setting": "gene #45 of Table 8", "result": 7.03}, {"measurement": "Log2 Expression Level", "setting": "gene #46 of Table 8", "result": 7.42}, {"measurement": "Log2 Expression Level", "setting": "gene #47 of Table 8", "result": 7.47}, {"measurement": "Log2 Expression Level", "setting": "gene #48 of Table 8", "result": 7.47}, {"measurement": "Log2 Expression Level", "setting": "gene #49 of Table 8", "result": 7.47}, {"measurement": "Log2 Expression Level", "setting": "gene #50 of Table 8", "result": 7.97}, {"measurement": "Log2 Expression Level", "setting": "gene #51 of Table 8", "result": 7.28}, {"measurement": "Log2 Expression Level", "setting": "gene #52 of Table 8", "result": 9.55}, {"measurement": "Log2 Expression Level", "setting": "gene #53 of Table 8", "result": 7.74}, {"measurement": "Log2 Expression Level", "setting": "gene #54 of Table 8", "result": 9.23}, {"measurement": "Log2 Expression Level", "setting": "gene #55 of Table 8", "result": 6.67}, {"measurement": "Log2 Expression Level", "setting": "gene #56 of Table 8", "result": 8.58}, {"measurement": "Log2 Expression Level", "setting": "gene #57 of Table 8", "result": 8.52}, {"measurement": "Log2 Expression Level", "setting": "gene #58 of Table 8", "result": 8.50}, {"measurement": "Log2 Expression Level", "setting": "gene #59 of Table 8", "result": 8.28}, {"measurement": "Log2 Expression Level", "setting": "gene #60 of Table 8", "result": 6.59}, {"measurement": "Log2 Expression Level", "setting": "gene #61 of Table 8", "result": 11.19}, {"measurement": "Log2 Expression Level", "setting": "gene #62 of Table 8", "result": 7.64}, {"measurement": "Log2 Expression Level", "setting": "gene #63 of Table 8", "result": 10.28}, {"measurement": "Log2 Expression Level", "setting": "gene #64 of Table 8", "result": 10.06}, {"measurement": "Log2 Expression Level", "setting": "gene #65 of Table 8", "result": 6.46}, {"measurement": "Log2 Expression Level", "setting": "gene #66 of Table 8", "result": 7.87}, {"measurement": "Log2 Expression Level", "setting": "gene #67 of Table 8", "result": 4.12}, {"measurement": "Log2 Expression Level", "setting": "gene #68 of Table 8", "result": 6.73}, {"measurement": "Log2 Expression Level", "setting": "gene #69 of Table 8", "result": 4.99}, {"measurement": "Log2 Expression Level", "setting": "gene #70 of Table 8", "result": 4.18}, {"measurement": "Log2 Expression Level", "setting": "gene #71 of Table 8", "result": 6.68}, {"measurement": "Log2 Expression Level", "setting": "gene #72 of Table 8", "result": 7.93}, {"measurement": "Log2 Expression Level", "setting": "gene #73 of Table 8", "result": 5.55}, {"measurement": "Log2 Expression Level", "setting": "gene #74 of Table 8", "result": 7.00}, {"measurement": "Log2 Expression Level", "setting": "gene #75 of Table 8", "result": 8.22}, {"measurement": "Log2 Expression Level", "setting": "gene #76 of Table 8", "result": 4.30}, {"measurement": "Log2 Expression Level", "setting": "gene #77 of Table 8", "result": 8.48}, {"measurement": "Log2 Expression Level", "setting": "gene #78 of Table 8", "result": 9.31}, {"measurement": "Log2 Expression Level", "setting": "gene #79 of Table 8", "result": 6.49}, {"measurement": "Log2 Expression Level", "setting": "gene #80 of Table 8", "result": 12.42}, {"measurement": "Log2 Expression Level", "setting": "gene #81 of Table 8", "result": 5.50}, {"measurement": "Log2 Expression Level", "setting": "gene #82 of Table 8", "result": 5.03}, {"measurement": "Log2 Expression Level", "setting": "gene #83 of Table 8", "result": 6.32}, {"measurement": "Log2 Expression Level", "setting": "gene #84 of Table 8", "result": 6.04}, {"measurement": "Log2 Expression Level", "setting": "gene #85 of Table 8", "result": 4.71}, {"measurement": "Log2 Expression Level", "setting": "gene #86 of Table 8", "result": 6.08}, {"measurement": "Log2 Expression Level", "setting": "gene #87 of Table 8", "result": 8.85}, {"measurement": "Log2 Expression Level", "setting": "gene #88 of Table 8", "result": 4.54}, {"measurement": "Log2 Expression Level", "setting": "gene #89 of Table 8", "result": 5.23}, {"measurement": "Log2 Expression Level", "setting": "gene #90 of Table 8", "result": 9.45}, {"measurement": "Log2 Expression Level", "setting": "gene #91 of Table 8", "result": 6.14}, {"measurement": "Log2 Expression Level", "setting": "gene #92 of Table 8", "result": 6.80}, {"measurement": "Log2 Expression Level", "setting": "gene #93 of Table 8", "result": 8.25}, {"measurement": "Log2 Expression Level", "setting": "gene #94 of Table 8", "result": 7.10}, {"measurement": "Log2 Expression Level", "setting": "gene #95 of Table 8", "result": 4.96}, {"measurement": "Log2 Expression Level", "setting": "gene #96 of Table 8", "result": 6.62}, {"measurement": "Log2 Expression Level", "setting": "gene #97 of Table 8", "result": 5.16}, {"measurement": "Log2 Expression Level", "setting": "gene #98 of Table 8", "result": 4.29}, {"measurement": "Log2 Expression Level", "setting": "gene #99 of Table 8", "result": 8.55}, {"measurement": "Log2 Expression Level", "setting": "gene #100 of Table 8", "result": 6.49}]}]}
